{"source": "patent US20250228771A1", "about": "“ALKALINE INTRAORAL PRODUCTS” (priority 2022, published 2025)", "origin": "cited, not measured here", "conditions": "Tomar S. L. et al., Tobacco Control 1997"}
{"smiles": "CN1CCCC1c1cccnc1", "note": "(stereo not shown) [nicotine]", "values": [{"measurement": "lower pKa", "value": "about 3.2"}]}
